Key:
[1] = system: Mycobacterium tuberculosis Erdman (autoluminescent); assay: Einf, fitted maximum growth inhibition of combination (fraction); higher = stronger maximal inhibition
Protocol: (§1)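 DiaMOND equipotent two-drug combination dose responses against autoluminescent M. tuberculosis Erdman in 8 in vitro models. Read-out is OD600, or luminescence for the intracellular and dormancy models, normalised to untreated wells. Hill-fit Einf, AUC25 and GRinf are potency metrics; FIC50 and FIC90 are Loewe-additivity fractional inhibitory concentrations, given as log2 (negative = synergy). Replicates are averaged.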

[2] = system: Mycobacterium tuberculosis Erdman (autoluminescent); assay: GRinf, maximum normalised growth rate inhibition (unitless (-1 to 1)); higher = less effect (negative = killing)
Protocol: as §1

[3] = system: Mycobacterium tuberculosis Erdman (autoluminescent); assay: FIC90 (Loewe) at 90% inhibition (log2); higher = more antagonistic
Protocol: as §1

[4] = system: Mycobacterium tuberculosis Erdman (autoluminescent); assay: FIC50 (Loewe) at 50% inhibition (log2); higher = more antagonistic
Protocol: as §1

[5] = system: Mycobacterium tuberculosis Erdman (autoluminescent); assay: AUC25, normalised area under dose response up to IC25 (fraction (0-1)); higher = more potent at low dose
Protocol: as §1

[6] = in vitro model: acidic pH 5.7, time point: constant (~7 days, model-specific)
[7] = in vitro model: acidic pH 5.7, time point: terminal (~4-5 doublings, model-specific)
[8] = in vitro model: butyrate, time point: constant (~7 days, model-specific)
[9] = in vitro model: butyrate, time point: terminal (~4-5 doublings, model-specific)
[10] = in vitro model: cholesterol 0.05 mM, time point: constant (~7 days, model-specific)
[11] = in vitro model: cholesterol 0.05 mM, time point: terminal (~4-5 doublings, model-specific)
[12] = in vitro model: cholesterol-high 0.2 mM, time point: constant (~7 days, model-specific)
[13] = in vitro model: cholesterol-high 0.2 mM, time point: terminal (~4-5 doublings, model-specific)
[14] = in vitro model: dormancy (butyrate + nitrate, low O2), time point: constant (~7 days, model-specific)
[15] = in vitro model: dormancy (butyrate + nitrate, low O2), time point: terminal (~4-5 doublings, model-specific)
[16] = in vitro model: intracellular J774, time point: constant = terminal
[17] = in vitro model: standard 7H9 glycerol, time point: constant = terminal
[18] = in vitro model: valerate, time point: constant (~7 days, model-specific)
[19] = in vitro model: valerate, time point: terminal (~4-5 doublings, model-specific)

Structure (SMILES): CC(C)/N=c1\cc2n(-c3ccc(Cl)cc3)c3ccccc3nc-2cc1Nc1ccc(Cl)cc1 [clofazimine] + O=[N+]([O-])c1cn2c(n1)OC[C@@H](OCc1ccc(OC(F)(F)F)cc1)C2 [pretomanid]
- Einf [1, 6]: 0.778
- Einf [1, 7]: 0.974
- Einf [1, 8]: 0.967
- Einf [1, 9]: 0.995
- Einf [1, 10]: 0.704
- Einf [1, 11]: 0.919
- Einf [1, 12]: 0.928
- Einf [1, 13]: 1
- Einf [1, 14]: 0.892
- Einf [1, 15]: 0.991
- Einf [1, 16]: 0.997
- Einf [1, 17]: 0.964
- Einf [1, 18]: 0.884
- Einf [1, 19]: 0.925
- GRinf [2, 6]: -0.287
- GRinf [2, 7]: -0.285
- GRinf [2, 8]: -0.167
- GRinf [2, 9]: -0.159
- GRinf [2, 10]: 0.0886
- GRinf [2, 11]: -0.123
- GRinf [2, 12]: -0.208
- GRinf [2, 13]: -0.69
- GRinf [2, 14]: 0.195
- GRinf [2, 15]: -0.234
- GRinf [2, 16]: -0.541
- GRinf [2, 17]: -0.211
- GRinf [2, 18]: -0.0878
- GRinf [2, 19]: -0.0377
- FIC90 [3, 7]: 0.503
- FIC90 [3, 8]: 1.35
- FIC90 [3, 9]: 1.26
- FIC90 [3, 11]: 0.298
- FIC90 [3, 12]: 0.676
- FIC90 [3, 13]: 0.816
- FIC90 [3, 14]: -1.07
- FIC90 [3, 15]: -0.637
- FIC90 [3, 16]: 0.0803
- FIC90 [3, 17]: 0.585
- FIC90 [3, 18]: 1.18
- FIC90 [3, 19]: 1.26
- FIC50 [4, 6]: -0.0507
- FIC50 [4, 7]: -0.167
- FIC50 [4, 8]: 0.464
- FIC50 [4, 9]: 0.356
- FIC50 [4, 10]: 0.602
- FIC50 [4, 11]: 0.632
- FIC50 [4, 12]: 0.591
- FIC50 [4, 13]: 0.631
- FIC50 [4, 14]: -0.213
- FIC50 [4, 15]: -0.405
- FIC50 [4, 17]: -0.193
- FIC50 [4, 18]: 0.762
- FIC50 [4, 19]: -0.0183
- AUC25 [5, 6]: 0.134
- AUC25 [5, 7]: 0.108
- AUC25 [5, 8]: 0.117
- AUC25 [5, 9]: 0.111
- AUC25 [5, 10]: 0.12
- AUC25 [5, 11]: 0.132
- AUC25 [5, 12]: 0.106
- AUC25 [5, 13]: 0.0964
- AUC25 [5, 14]: 0.0762
- AUC25 [5, 15]: 0.0498
- AUC25 [5, 17]: 0.116
- AUC25 [5, 18]: 0.136
- AUC25 [5, 19]: 0.097

Structure (SMILES): CC[C@@H](CO)NCCN[C@@H](CC)CO [ethambutol] + CC(=O)NC[C@H]1CN(c2ccc(N3CCOCC3)c(F)c2)C(=O)O1 [linezolid]
- Einf [1, 6]: 0.79
- Einf [1, 7]: 0.957
- Einf [1, 8]: 0.88
- Einf [1, 9]: 0.934
- Einf [1, 10]: 0.741
- Einf [1, 11]: 0.952
- Einf [1, 12]: 0.935
- Einf [1, 13]: 1
- Einf [1, 14]: 0.811
- Einf [1, 15]: 0.943
- Einf [1, 16]: 0.948
- Einf [1, 17]: 0.892
- Einf [1, 18]: 0.817
- Einf [1, 19]: 0.909
- GRinf [2, 6]: -0.243
- GRinf [2, 7]: -0.168
- GRinf [2, 8]: 0.121
- GRinf [2, 9]: 0.126
- GRinf [2, 10]: -0.189
- GRinf [2, 11]: -0.325
- GRinf [2, 12]: -0.702
- GRinf [2, 13]: -0.951
- GRinf [2, 14]: 0.461
- GRinf [2, 15]: -0.432
- GRinf [2, 16]: -0.511
- GRinf [2, 17]: 0.15
- GRinf [2, 18]: 0.187
- GRinf [2, 19]: 0.127
- FIC90 [3, 7]: 0.495
- FIC90 [3, 9]: 0.243
- FIC90 [3, 13]: 1.03
- FIC90 [3, 15]: 0.335
- FIC90 [3, 16]: 0.585
- FIC90 [3, 19]: 0.0781
- FIC50 [4, 6]: 0.0133
- FIC50 [4, 7]: 1.24
- FIC50 [4, 8]: 0.492
- FIC50 [4, 9]: 0.333
- FIC50 [4, 10]: 0.049
- FIC50 [4, 11]: -0.615
- FIC50 [4, 12]: 0.732
- FIC50 [4, 13]: 0.569
- FIC50 [4, 14]: 0.653
- FIC50 [4, 15]: -0.181
- FIC50 [4, 17]: 0.485
- FIC50 [4, 18]: -0.233
- FIC50 [4, 19]: 0.293
- AUC25 [5, 6]: 0.0997
- AUC25 [5, 7]: 0.0783
- AUC25 [5, 8]: 0.0872
- AUC25 [5, 9]: 0.0727
- AUC25 [5, 10]: 0.151
- AUC25 [5, 11]: 0.155
- AUC25 [5, 12]: 0.106
- AUC25 [5, 13]: 0.104
- AUC25 [5, 14]: 0.125
- AUC25 [5, 15]: 0.106
- AUC25 [5, 17]: 0.0844
- AUC25 [5, 18]: 0.091
- AUC25 [5, 19]: 0.0651
